{"source": "patent US12029738B2", "about": "“Antiproliferative compounds and methods of use thereof” (Celgene Corporation, priority 2017, dated 2024)", "key": {"[1]": {"system": "unstimulated primary human PBMCs", "experiment": "Anti-proliferative counter-screen (CellTiter-Glo, 72 h)", "format": "cell-based", "details": "PBMC"}, "H929-1051 xenograft": {"system": "H929-1051 xenograft", "experiment": "Lenalidomide-resistant H929-1051 xenograft, continuous QD dosing", "format": "in vivo, mouse", "description": "FIG. 4. Antitumor activity of Compound 2 with continuous dosing in lenalidomide-resistant H929-1051 xenograft model. Female SCID mice were inoculated with 10×10^6 H929-1051 tumor cells into the right flank. Mice were randomized into treatment groups (n=10/group) at the time of treatment initiation. Test article treatment started on Day 14 when the tumors were approximately 120 mm^3.\nAntitumor Activity of Compound 2 in Lenalidomide-resistant Multiple Myeloma Xenograft Model. The purpose of the study was to test the single agent antitumor activity of Compound 2 in an H929-1051 xenograft model with once daily dosing (QD) at 1, 3, 10, and 30 mg/kg."}, "[2]": {"system": "neutrophil progenitors (bone marrow CD34+ cells from healthy donors)", "experiment": "Ex vivo maturation of myeloid progenitors to adult neutrophils", "experimental": "Methods: Ex vivo cultures of bone marrow (BM) CD34^+ cells from healthy donors (HD) were used to investigate neutrophil-specific ex vivo maturation. In vitro differentiation of neutrophil progenitors was induced by adding stem cell factor (SCF), fins-related tyrosine kinase 3 ligand (Flt3-L), and granulocyte colony stimulating factor (G-CSF) to culture media. Cell differentiation was evaluated by flow cytometry as the percentage of cells in 5 subpopulations: hematopoietic stem cells (HSC, CD34^+/CD33^−/CD11b^−) and Stage I (CD34^+/CD33^+/CD11b^−), Stage II (CD34^−/CD33^+/CD11b^−), Stage III (CD34^−/CD33^+/CD11b^+), and Stage IV (CD34^−/CD33^−/CD11b^+) (from immature to mature), as shown in FIG. 7. The effects of Compound 2 on maturation of neutrophil progenitors were assessed and different dosing schedules were evaluated to gain insight into the schedule dependence of these events.\nLonger Daily Compound 2 Exposures. To further characterize the potential impacts of different schedules on arrest of neutrophil progenitor maturation and subsequent recovery, changes in the relative proportions of each of the aforementioned stages of myeloid progenitor […] CD34^+ BM cells derived from healthy donors were exposed to Compound 2 on 3 or 5 consecutive days starting on Day 10 for 6 h (Donors No. 1 and 2) or for 24 h (Donors No. 3 and 4) each day. […]"}, "MM cell lines": {"system": "MM cell lines", "experiment": "Daratumumab-mediated ADCC assay", "format": "cell-based, human", "experimental": "ADCC Assay: The effect of Compound 2 or pomalidomide on daratumumab-mediated ADCC was evaluated in vitro by flow cytometry in a panel of MM cell lines. The NK cells were cultured overnight in NK culture medium containing 10 U/mL of recombinant human IL-2 before the start of the assay. The NK cells were washed and resuspended back in NK cell culture medium at 3.75×10^6 cells/mL. The MM cells were pretreated with sub-lethal concentrations of Compound 2 or pomalidomide for 72 h before using in the ADCC assay. The MM cells were washed and labelled with Tag-it Violet™ Proliferation and Cell Tracking Dye according to the manufacturer's instructions, followed by resuspension in NK culture medium at a concentration of 0.75×10^6 cells/mL. The ADCC assay was performed in triplicate with an effector to tumor ratio of 10:1 in a 96 well plate. MM cells (10 μL) were mixed with 10 μL of 2× concentration of daratumumab in the wells before the addition of 20 μL of NK cells. The co-cultures were incubated at 37° C. for 3 h followed by the addition of 50 μL of 7-AAD solution at room temperature for 15 minutes. The analysis was performed on a BD Celesta flow cytometer."}, "[3]": {"system": "multiple myeloma and plasma cell leukemia cell lines (OPM2.P10, RPMI.8226, L363, JJN-3)", "experiment": "Combination with proteasome inhibitor pulse (flow cytometry, 72 h)", "format": "cell-based, human", "details": "then Compound 2 72 h", "quoted_text": "Twenty four hours prior to treatment with a proteasome inhibitor and test compound, an appropriate number of cells were split to a concentration of 0.2×10^6/mL in fresh media to allow for exponential growth. On the day of treatment, compounds were freshly solvated in DMSO. Proteasome inhibitors bortezomib or carfilzomib were diluted and added to pre-warmed culture media at the final working concentrations of 150 nM or 300 nM for bortezomib and 300 nM or 550 nM for carfilzomib. Proteasome inhibitor concentrations were determined based upon clinical Cmax concentrations as well as previous studies in each cell line which determined the duration and concentration of PI required to inhibit a specific amount of β5 proteasome activity. Cells were counted and an appropriate number were placed into media containing proteasome inhibitor and thoroughly mixed. After incubation for 1 h at 37° C., 5% CO2, cells were washed two times with 40 mL of complete media to remove the proteasome inhibitor. […] Plated cells were cultured at 37° C., 5% C02, for the remainder of the experiment, up to 72 h. Every 24 h, proteasome inhibition was monitored by the Cell-Based Proteasome-Glo Assay. Proliferation and apoptosis were measured at 72 h by flow cytometry. Cells were stained with APC Annexin-V and 7-AAD to enumerate the number of viable cells remaining in culture.\nAn in vitro cell assay was established in order to mimic the clinical pharmacokinetics (PK) and pharmacodynamics (PD) of exposure to proteasome inhibitors bortezomib and carfilzomib."}, "[4]": {"system": "lenalidomide-resistant NCI-H929 (H929-1051) multiple myeloma/plasmacytoma tumors", "experiment": "H929-1051 xenograft, Compound 2 alone and with dexamethasone", "format": "in vivo, mouse"}}}
{"smiles": "N#Cc1ccc(N2CCN(Cc3ccc(COc4cccc5c4CN([C@H]4CCC(=O)NC4=O)C5=O)cc3)CC2)c(F)c1", "note": "[Compound 2, (S)-4-(4-(4-(((2-(2,6-dioxopiperidin-3-yl)-1-oxoisoindolin-4-yl)oxy)methyl)benzyl)piperazin-1-yl)-3-fluorobenzonitrile]", "values": [{"measurement": "IC50", "setting": "[1]", "value": "> 10", "unit": "µM"}, {"measurement": "tumor volume reduction", "setting": "H929-1051 xenograft; 1 mg/kg QD", "value": 75, "unit": "%"}, {"measurement": "tumor volume reduction", "setting": "H929-1051 xenograft; 3 mg/kg QD", "value": 86, "unit": "%"}, {"measurement": "tumor volume reduction", "setting": "H929-1051 xenograft; 10 mg/kg QD", "value": 84, "unit": "%"}, {"measurement": "tumor volume reduction", "setting": "H929-1051 xenograft; 30 mg/kg QD", "value": 85, "unit": "%"}, {"measurement": "loss of viability", "setting": "[2]", "value": "no loss of viability was observed"}, {"measurement": "late-stage maturation of neutrophil progenitors", "setting": "[2]; 1, 10, 100 nM, 2, 4, 6 h exposures for up to 3 consecutive days", "value": "blocked"}, {"measurement": "daratumumab-mediated ADCC of pretreated MM cells", "setting": "MM cell lines; 72 h pretreatment, sub-lethal concentrations, NK cells E:T 10:1", "value": "higher degree of tumor lysis with daratumumab compared to untreated cells"}, {"measurement": "daratumumab-mediated ADCC", "setting": "MM cell lines; ARH-77 cell line", "value": "enhanced ADCC"}, {"measurement": "effect in combination with bortezomib", "setting": "[3]; 1 h bortezomib pulse, OPM2.P10, RPMI.8226, JJN-3", "value": "demonstrated a combination effect"}, {"measurement": "effect in combination with carfilzomib", "setting": "[3]; 1 h carfilzomib pulse, 4 cell lines", "value": "combination effects with Compound 2 were demonstrated in all 4 cell lines"}, {"measurement": "combination antitumor activity (fractional product method)", "setting": "[4]; Compound 2 0.1 mg/kg and dexamethasone 0.5 mg/kg", "value": "synergistic"}, {"measurement": "tumor volume reduction (TVR)", "setting": "[4]; Compound 2 0.1 mg/kg in combination with dexamethasone 0.5 mg/kg", "value": 84, "unit": "%"}, {"measurement": "tumor growth inhibition / tumor volume reduction (TVR)", "setting": "[4]; single agent Compound 2 0.1 mg/kg oral once daily", "value": 34, "unit": "%"}]}
